Laboratory results reported in patent publication US8563723B2, “Arylsulfonyl pyrazoline carboxamidine derivatives as 5-HT6 antagonists” (Abbott Healthcare Products, B.V., priority 2008, dated 2013).
Where two headings read alike, the source gives them in different places.

Assays:
5-HT6 receptor [1] = molecular target: T1, 5-HT6 receptor (Homo sapiens, UniProt P50406); test: In vitro affinity for human 5-HT6 receptors ([3H]-LSD binding, CHO cell membranes); set-up: host or cells: CHO/Gα16/mtAEQ/h5HT6-A1 cells; conditions: read-out: 5-HT6 pKi (converted)
T1 sequence (P50406 whole entry): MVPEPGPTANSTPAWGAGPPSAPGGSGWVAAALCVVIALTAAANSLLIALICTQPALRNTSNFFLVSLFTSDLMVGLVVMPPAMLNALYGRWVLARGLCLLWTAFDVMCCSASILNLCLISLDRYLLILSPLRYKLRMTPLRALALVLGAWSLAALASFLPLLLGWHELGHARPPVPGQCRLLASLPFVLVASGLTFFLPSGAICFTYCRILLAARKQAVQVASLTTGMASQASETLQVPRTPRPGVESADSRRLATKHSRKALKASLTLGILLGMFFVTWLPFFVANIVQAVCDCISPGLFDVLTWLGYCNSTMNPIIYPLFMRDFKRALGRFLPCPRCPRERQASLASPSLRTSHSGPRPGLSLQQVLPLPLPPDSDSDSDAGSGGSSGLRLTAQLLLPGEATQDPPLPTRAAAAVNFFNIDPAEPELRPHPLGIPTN
Procedure: In Vitro Affinity for Human 5-HT6 Receptors
Affinity for human 5-HT6 receptors was measured in a membrane preparation of CHO-cells transfected with human 5-HT6 receptors by binding studies using [^3H]-N-Methyl-Lysergic acid diethylamide ([^3H]-LSD) as ligand. […] CHO/Gα16/mtAEQ/h5HT6-A1 cells were grown in T-flasks in CHO-S-SFM II medium (Gibco BRL), supplemented with 1% dialysed FCS, 2 mM L-glutamine, Geneticin 500 μg/ml and Zeocin 200 μg/ml. […] After thawing cells were centrifuged during 3 minutes at 1500 g at 4° C. […] The assay was established so as to achieve steady state conditions and to optimize specific binding. For the 5-HT6 receptor, membranes from 5.10^5 cells were incubated with 5.0 nM [^3H]-LSD at 37° C. for 30 minutes. Nonspecific binding was determined using 10^−5 M serotonin. Assays were terminated by vacuum filtration through glass fibre filters (GF/B) which had been pretreated with 0.5% polyethyleneimine. Total and bound radioactivity was determined by liquid scintillation counting. […] Compounds were tested at a 4 log concentration range; all determinations were performed as triplicates. IC50 values were determined by non-linear regression analysis using Hill equation curve fitting. The inhibition constants (Ki-values) were calculated from the Cheng-Preushoff equation: Ki=IC50:(1+L/Kd) wherein L represents the concentration [^3H]-LSD in the assay, and Kd its affinity for the receptor. Results are expressed as pKi-values, means±SD of at least three separate experiments.

5-HT6 receptor [2] = molecular target: T1, 5-HT6 receptor; test: In vitro functional activity ((ant)agonism) on human 5-HT6 receptors, CHO-human-5HT6-Aequorin assay; format: cell-based; set-up: host or cells: CHO AequoScreen recombinant cell line (expresses mitochondrial targeted apo-Aequorin)
Procedure: Human-5-HT6-Aequorin cells express mitochondrial targeted apo-Aequorin. Cells have to be loaded with coelanterazine, in order to reconstitute active Aequorin. […] This luminescent response is dependent on the agonist concentration. Luminescence is measured using the MicroBeta Jet (Perkin Elmer). Agonistic effects of compounds are expressed as pEC50. […] Compounds were tested at a 5 log concentration range, and 3 independent experiments were performed in duplicate.

in vitro [3] = conditions: human, hepatocytes
in vitro [4] = conditions: rat, hepatocytes
[5] = [3H]-LSD, membranes of CHO cells with human 5-HT6, main compound table
[6] = antagonism of 10^-8 M α-methylserotonin induced luminescence, main compound table, read-out: 5-HT6 pA2 (converted)
[7] = [3H]-LSD, membranes of CHO cells with human 5-HT6, comparison table Example 6
[8] = antagonism of 10^-8 M α-methylserotonin induced luminescence, main compound table
[9] = antagonism of 10^-8 M α-methylserotonin induced luminescence, comparison table Example 6

Row | Structure (SMILES) | Ki (5-HT6 receptor [1]; [5]) [nM] | Kb (5-HT6 receptor [2]; [6]) [nM] | other results
1 | CCN/C(=N\S(=O)(=O)c1ccc(N)cc1)N1CC(CC)C=N1 (single isomer, unassigned) [Compound 1] | 3.16 | 2 | 
2 | CCN/C(=N\S(=O)(=O)c1ccc(N)cc1)N1CC(CC)C=N1 (single isomer, unassigned) [Compound 2] | 10 |  | 
3 | CCN/C(=N\S(=O)(=O)c1ccc(N)c(Cl)c1)N1CC(CC)C=N1 (single isomer, unassigned) [Compound 11] | 1 | 0.501 | 
4 | CCN/C(=N\S(=O)(=O)c1ccc(N)c(Cl)c1)N1CC(CC)C=N1 (single isomer, unassigned) [Compound 12] | 1.58 | 1 | 
5 | CCN/C(=N\S(=O)(=O)c1ccc(O)cc1)N1CC(CC)C=N1 (single isomer, unassigned) [Compound 20] | 2 | 1 | 
6 | CCN/C(=N\S(=O)(=O)c1ccc(O)cc1)N1CC(CC)C=N1 (single isomer, unassigned) [Compound 21] | 10 | 6.31 | 
7 | CCN/C(=N\S(=O)(=O)c1ccc(N)cc1)N1CC(C)(C)C=N1 [Compound 3, 4-Amino-N-[(4,4-dimethyl-4,5-dihydro-pyrazol-1-yl)-ethylamino-methylene]-benzenesulfonamide] | 12.6 |  | half-life at 1 μg/ml (in vitro [3]): > 1000 min; half-life at 1 μg/ml (in vitro [4]): 71 min; Ki (5-HT6 receptor [1]; [7]): 12.6 nM; 5-HT6 pA2 (5-HT6 receptor [2]; [8]): 7.6
8 | CCN/C(=N\S(=O)(=O)c1ccc(N)cc1)N1CC2(C=N1)CCCC2 [Compound 4, 4-Amino-N-[(2,3-diaza-spiro[4.4]non-3-en-2-yl)-ethylamino-methylene]benzene-sulfonamide] | 10 |  | melting point: 141 to 142 °C; Kb (5-HT6 receptor [2]; 5-HT6 pA2, antagonism of 10^-8 M α-methylserotonin induced luminescence, main compound table): 5.01 nM
9 | N/C(=N\S(=O)(=O)c1ccc(N)cc1)N1CC2(C=N1)CCCC2 [Compound 5] | 100 | 79.4 | 
10 | CCN/C(=N\S(=O)(=O)c1ccc(N)cc1)N1CC2(C=N1)CCOCC2 [Compound 7] | 63.1 | 25.1 | 
11 | CN/C(=N\S(=O)(=O)c1ccc(N)cc1)N1CC2(C=N1)CCOCC2 [Compound 8] | 200 | 158 | 
12 | N/C(=N\S(=O)(=O)c1ccc(N)cc1)N1CC2(C=N1)CCOCC2 [Compound 9] | 251 | 200 | 
13 | CCN/C(=N\S(=O)(=O)c1ccc2c(c1)CCN2)N1CC(CC)C=N1 (stereo not drawn) [Compound 16, 2,3-Dihydro-1H-indole-5-sulfonic acid ethylamino-(4-ethyl-4,5-dihydro-pyrazol-1-yl)-methyleneamide] | 12.6 | 10 | 
14 | CCN/C(=N\S(=O)(=O)c1ccc2[nH]ccc2c1)N1CC(CC)C=N1 (stereo not drawn) [Compound 18, 1H-Indole-5-sulfonic acid ethylamino-(4-ethyl-4,5-dihydro-pyrazol-1-yl)-methyleneamide] | 3.98 |  | 
15 | CCN/C(=N\S(=O)(=O)c1ccc(O)cc1)N1CC2(C=N1)CCCCC2 [Compound 24] |  |  | melting point: 140 to 142 °C
16 | CCN/C(=N\S(=O)(=O)c1ccc(O)cc1)N1N=CCC1c1ccccc1 (stereo not drawn) [Compound 25, N-[Ethylamino-(5-phenyl-4,5-dihydro-pyrazol-1-yl)-methylene]-4-hydroxybenzene-sulfonamide] |  |  | melting point: 158 to 160 °C
17 | CCN/C(=N\S(=O)(=O)c1ccc(O)c(Cl)c1)N1CC(CC)C=N1 (stereo not drawn) [Compound 26, 3-Chloro-N-[ethylamino-(4-ethyl-4,5-dihydro-pyrazol-1-yl)-methylene]-4-hydroxy-benzenesulfonamide] | 10 |  | 
18 | CCN/C(=N\S(=O)(=O)c1ccc(O)c(Cl)c1)N1CC(C)(C)C=N1 [Compound 27] | 15.8 | 25.1 | 
19 | CCN/C(=N\S(=O)(=O)c1cccc(N)c1)N1CC(CC)C=N1 (stereo not drawn) [Compound 29] | 63.1 | 100 | 

Row | Structure (SMILES) | Ki (5-HT6 receptor [1]; [5]) [nM] | Kb (5-HT6 receptor [2]; [6]) [nM] | other results
20 | CCN/C(=N\S(=O)(=O)c1cccc(N)c1)N1CC(C)(C)C=N1 [Compound 30, 3-Amino-N-[(4,4-dimethyl-4,5-dihydro-pyrazol-1-yl)-ethylamino-methylene]-benzenesulfonamide] | 251 | 126 | 
21 | CCN/C(=N\S(=O)(=O)c1cccc(Cl)c1)N1CC(C)(C)C=N1 [Compound 33 from WO 2008/034863, reference compound] |  |  | Ki (5-HT6 receptor [1]): 25.1 nM; 5-HT6 pA2 (5-HT6 receptor [2]; [9]): 7.8
22 | CCN/C(=N\S(=O)(=O)c1ccc2c(c1)NCC2)N1CC(CC)C=N1 (stereo not drawn) [Compound 33, 2,3-Dihydro-1H-indole-6-sulfonic acid ethylamino-(4-ethyl-4,5-dihydro-pyrazol-1-yl)-methyleneamide] | 501 |  | 
23 | CCN/C(=N\S(=O)(=O)c1cccc(O)c1)N1CC(C)(C)C=N1 [Compound 36, N-[(4,4-Dimethyl-4,5-dihydro-pyrazol-1-yl)-ethylamino-methylene]-3-hydroxy-benzenesulfonamide] | 50.1 | 31.6 | 
24 | CCN/C(=N\S(=O)(=O)c1ccc(CO)cc1)N1CC2(C=N1)CCCC2 [Compound 40, N-[(2,3-Diaza-spiro[4.4]non-3-en-2-yl)-ethylamino-methylene]-4-hydroxymethyl-benzenesulfonamide] | 631 |  | 
25 | CCN/C(=N\S(=O)(=O)c1ccc(C(N)=O)cc1)N1CC(CC)C=N1 (stereo not drawn) [Compound 43, 4-{[Ethylamino-(4-ethyl-4,5-dihydro-pyrazol-1-yl)-methylene]-sulfamoyl}-benzamide] |  |  | melting point: 146 to 149 °C
26 | CCN/C(=N\S(=O)(=O)c1cccc(C(N)=O)c1)N1CC(CC)C=N1 (stereo not drawn) [Compound 44, 3-{[Ethylamino-(4-ethyl-4,5-dihydro-pyrazol-1-yl)-methylene]-sulfamoyl}-benzamide] |  |  | melting point: 164 to 168 °C
27 | CCN/C(=N\S(=O)(=O)c1ccc(N)cc1)N1CC2(C=N1)CCNCC2 [Compound 47, 4-Amino-N-[ethylamino-(2,3,8-triaza-spiro[4.5]dec-3-en-2-yl)-methylene]-benzenesulfonamide] |  |  | 5-HT6 pA2 (5-HT6 receptor [2]; [8]): 8.6
28 | CCN/C(=N\S(=O)(=O)c1cccc(Cl)c1)N1CC2(C=N1)CCCC2 [Compound 49 from WO 2008/034863, reference compound] |  |  | Ki (5-HT6 receptor [1]; [7]): 5.01 nM; 5-HT6 pA2 (5-HT6 receptor [2]; [9]): 8.2
29 | CCN/C(=N\S(=O)(=O)c1ccc2[nH]ccc2c1)N1CC2(C=N1)CCNCC2 [Compound 49] |  |  | 5-HT6 pA2 (5-HT6 receptor [2]; [8]): 8.8
30 | CCN/C(=N\S(=O)(=O)c1ccc(O)cc1)N1CC2(C=N1)CCNCC2 [Compound 50] | 12.6 |  | 
31 | CCN/C(=N\S(=O)(=O)c1cc(O)cc(Cl)c1)N1CC2(C=N1)CCNCC2 [Compound 52] | 7.94 |  | melting point: 112 to 114 °C
32 | CCN/C(=N\S(=O)(=O)c1cc(O)cc(Cl)c1)N1CC(CC)C=N1 (stereo not drawn) [Compound 53] | 5.01 |  | melting point: 146 to 147 °C
33 | CCN/C(=N\S(=O)(=O)c1cc(O)cc(Cl)c1)N1CC2(C=N1)CCCC2 [Compound 54] |  |  | melting point: 157 to 158 °C
34 | CCN/C(=N\S(=O)(=O)c1cc(O)cc(Cl)c1)N1CC2(C=N1)CCCCC2 [Compound 55] |  | 0.2 | 
35 | CCN/C(=N\S(=O)(=O)c1ccc2c(c1)CCN2)N1CC(C)(C)C=N1 [Compound 56] | 15.8 |  | 
36 | CCN/C(=N\S(=O)(=O)c1ccc2[nH]ccc2c1)N1CC(C)(C)C=N1 [Compound 57] | 7.94 | 2.51 | 
37 | CCN/C(=N\S(=O)(=O)c1ccc2c(c1)CCN2)N1CC2(C=N1)CCCCC2 [Compound 59] | 7.94 |  | 
38 | CCN/C(=N\S(=O)(=O)c1ccc2[nH]ccc2c1)N1CC2(C=N1)CCCCC2 [Compound 60] | 3.16 |  | 
